In experiment [1] the test system is Male rats (Long Evans). Put plainly: Cardiovascular variables in conscious, freely moving instrumented rats after intravenous injection. In kind it is in vivo, rat. The note with it: vs vehicle; for effect on the heart rate / effect on the mean arterial blood pressure: 10 mg per kg body weight i.v. in acetonitrile/dextrose. Here is the method:
(§1) Male rats (Long Evans) of body mass in the range of from 350 to 450 g were used in the experiments.
(§2) The rats were instrumented with probes to monitor blood flow in renal, mesenteric and hindquarters vascular beds and with catheters to measure blood pressure and heart rate and to administer substances intravenously.
(§3) Measurements of the cardiovascular variables were made in the test rats which were conscious and able to move freely during the duration of the test procedure (10 minutes). The raw data were sampled (every 2 ms), averages were calculated (per cardiac cycle) and the data was stored to diskette (every 5 s). The stored data was analysed off line.
The following substances were administered by intravenous injection to the test rats.
1) vehicle only (100 μl of 50:50 acetonitrile:dextrose)
2) 10 mg per kg body weight of N-(3-oxododecanoyl)homoserine lactone (OdDHL; Formula I; n=2, Y=X=O, R=3-oxododecanoyl). The OdDHL was dissolved in acetonitrile/dextrose (50 μl:50 μl) 100 μl.
3) vehicle only (100 μl of 50:50 acetonitrile:dextrose)
4) 10 mg per kg body weight of N-(3-oxoundecanoyl)homoserine lactone (OuDHL; Formula I; n=2, Y=X=O, R=3-oxoundecanoyl).
The OuDHL was dissolved in acetonitrile/dextrose (50 μl:50 μl) 100 μl.

For experiment [2], the system named is Male rats (Long Evans). The experiment is described as follows: Cardiovascular variables in conscious rats after cardiac autonomic blockade with atenolol + atropine. In kind it is in vivo, rat. The note with it: 10 mg per kg i.v. after earlier administration of atenolol and atropine. How it is done:
as §1, §2, §3
The following substances were administered intravenously to the test rats.
1) As in 2) in Experiment I above (∘)
2) Atenolol +atropine then as in 2) in Experiment I above (●).

The record followed here is patent publication US6602905B1, “N-acyl homoserine lactones for the treatment of cardiac tachyarrhythmias, ischaemic heart disease or congestive heart failure” (The University of Nottingham, priority 1999, dated 2003).

Consider `CCCCCCCCCC(=O)CC(=O)N[C@H]1CCOC1=O` [OdDHL, N-(3-oxododecanoyl)homoserine lactone], for which, in the experiment with Male rats (Long Evans) [1], the “effect on the heart rate” value is listed as “profound bradycardia” and the “effect on the mean arterial blood pressure” value is “substantially no change”. The “blood flow, particularly in the mesenteric and hindquarters” value in the experiment with Male rats (Long Evans) [1] (10 mg per kg body weight i.v.) is “reduced”. In addition, the “bradycardia (heart rate) after cardiac autonomic blockade” value with Male rats (Long Evans) [2] was “not observed”.
As to `CCCCCCCCC(=O)CC(=O)NC1CCOC1=O` (stereo not drawn) [OuDHL, N-(3-oxoundecanoyl)homoserine lactone], in the experiment on Male rats (Long Evans) [1], the “effect on the heart rate” value is “marked bradycardia” and the “effect on the mean arterial blood pressure” value is on record as “substantially no change”.
